Results on 2 compounds are retold here after patent US20190321365A1, “Maintenance Therapy for the Treatment of Cancer” (Aslan Pharmaceuticals Pte. Ltd., priority 2016, published 2019).

Where two headings read alike, the source gives them in different places.

One series has as its system breast cancer. The following applies: cited from earlier work.
Series [1] has as its system stage IV gastric cancer. Briefly: Example 7: trial ASLAN001-002, maintenance monotherapy, patient with stage IV gastric cancer. It counts as in vivo, human. The protocol: A person (ASLAN001-002 2B302) had the underlying disease of gastro-esophageal reflux disease. They were diagnosed with stage IV gastric cancer in Jul. 2016.
They joined the clinical trial, ASLAN001-002. The study treatment of cisplatin/capecitabine plus continuous 300 mg varlitinib per oral twice a day started on 6 Sep. 2016. After 6 cycles (21 days/cycle) of combined regimen, they continue varlitinib monotherapy. The total treatment duration of varlitinib maintenance therapy was 134 days. […] The study treatment was discontinued due to disease progression.

Series [2] in a line: General tolerability in patients. The following applies: in comparison to many anti-cancer treatments. It is filed as in vivo, human.
For series [3], the system named is stage IV cholangiocarcinoma. Nature of the series: Example 4: trial ASLAN001-002, maintenance monotherapy, patient with stage IV cholangiocarcinoma. It is filed as in vivo, human. On the procedure:
A person (ASLAN001-002 2A101) had the past history of type 2 diabetes mellitus and hypertension for more than 10 years. They were diagnosed with stage IV cholangiocarcinoma in November 2014.
They joined the clinical trial, ASLAN001-002. The study treatment of cisplatin/5-FU plus continuous 400 mg varlitinib per oral twice a day started on 27 Jan. 2015.
After 6 cycles (28 days/cycle) of combined regimen, […] continued 400 mg varlitinib monotherapy for another 99 days. […] The total treatment duration of varlitinib maintenance therapy was 287 days.
The study treatment was discontinued due to disease progression.

For series [4], the system named is choloangiocarcinoma (CCA). Briefly: Example 2: maintenance monotherapy, patient with cholangiocarcinoma. It is filed as in vivo, human. On the procedure: A person with choloangiocarcinoma (CCA), namely […] adenocarcinoma had already received surgery, was administered varlitinib at a dose of 400 mg bi-daily in combination with doublet chemotherapy for six 28-day cycles. Varlitinib was then used as maintenance therapy as monotherapy for 10 additional cycles, of 28 days of treatment.

Series [5] relates to stage IV gastric cancer. Briefly: Example 5: trial ASLAN001-002, maintenance monotherapy, patient with stage IV gastric cancer. It counts as in vivo, human. The protocol: A person (ASLAN001-002 2A102) had the past history of hypertension for more than 5 years. They were diagnosed with stage IV gastric cancer in April 2015.
They joined the clinical trial, ASLAN001-002. The study treatment of cisplatin/5-FUplus continuous 400 mg varlitinib per oral twice a day started on 12 May 2015. After 6 cycles (28 days/cycle) of combined regimen, they continued 400 mg varlitinib monotherapy for another 112 days. […] The total treatment duration of varlitinib maintenance therapy was 243 days. […] The study treatment was discontinued due to disease progression.

Series [6] deals with intrahepatic cholangiocarcinoma. Nature of the series: Example 3: trial ASLAN001-002SG, maintenance monotherapy, patient with intrahepatic cholangiocarcinoma. It is filed as in vivo, human. An excerpt:
A person ([…]/0013) had the past history of meningioma post left craniotomy for tumor excision in 2007. They were diagnosed with intrahepatic cholangiocarcinoma in July 2013, and received left hemihepatectomy followed by adjuvant chemotherapy (gemcitabine plus cisplatin) from 14 Aug. 2013 to 8 Jan. 2014. Disease relapse was found in […]. Thus, they received systemic treatment with gemcitabine plus cisplatin from 13th May to 1 Jul. 2015. They joined the clinical trial, […]. The study treatment of bi-weekly FOLFOX plus continuous 400 mg varlitinib per oral twice a day started on 4 Aug. 2015. […] 2015, varlitinib was interrupted and reduced to 300 mg twice a day in combination with FOLFOX. After 9 cycles (14 days/cycle) of combined regimen, they continue varlitinib monotherapy.

Series [7] deals with squamous cell carcinoma of the cervix. Briefly: Example 1: maintenance therapy, patient with squamous cell carcinoma of the cervix. It counts as in vivo, human. The following applies: 300 mg bi-daily; one patient, progressing after radiation and chemotherapy. The protocol: A patient diagnosed with squamous cell carcinoma of the cervix was initially treated with radiation therapy and concurrent weekly cisplatin. They had recurring disease the following year. They subsequently received a number of lines of chemotherapy, including topotecan/cisplating and ifosfamide. The cancer continued to progress.
They received 300 mg bi-daily of varlitinib for 6.5 years.
The patient received varlitinib maintenance therapy for about 6.5 years before developing transitional cell carcinoma of the bladder. It is likely that this bladder carcinoma was a result receiving pelvic radiation and/or treatment with ifsoamide.

The subject of series [8] is gastric tumors co-expressing EGFR and HER2 or HER2 amplified. Nature of the series: Phase I monotherapy trial in gastric cancer patients, tumor biopsies by immunohistochemistry. It counts as in vivo, human. The following applies: 23 patients, 500 mg orally twice daily, monotherapy for 28 days; biopsies before and after treatment. On the procedure: It has been tested as a monotherapy in phase I clinical trials of gastric cancer patients. 23 patients, who had previously failed on one or more rounds of chemotherapy and, where eligible, trastuzumab, each received 500 mg of ASLAN001 orally twice daily as monotherapy for 28 days. Tumor biopsies taken before and after treatment were analysed using immunohistochemistry.

The subject of another series is stage IV bladder cancer. Briefly: Example 6: trial ASLAN001-002SG, maintenance monotherapy, patient with stage IV bladder cancer. It is filed as in vivo, human. An excerpt: A person (ASLAN001-002SG DNT/0012) had the past history of type 2 diabetes mellitus, atrial fibrillation, hypertension, hyperlipidemia, and grade 1 hearing loss. They were diagnosed with stage IV bladder cancer and received radical cystoprostatectomy on 13 Dec. 2013. They also received cisplatin based concurrent radiotherapy on 20 Feb. 2014, and gemcitabine plus cisplatin from 10 Apr. to 8 May 2015.
They joined the clinical trial, ASLAN001-002SG. The study treatment of bi-weekly FOLFOX plus continuous 300 mg varlitinib per oral twice a day started on 24 Aug. 2015. After 9 cycles (14 days/cycle) of combined regimen, they continued varlitinib monotherapy. The total treatment duration of varlitinib maintenance therapy was 140 days. […] The study treatment was discontinued due to disease progression.

The mark [9] stands for this setting: women who didn't take hormone replacement therapy.

Regarding `CC/C(=C(\c1ccccc1)c1ccc(OCCN(C)C)cc1)c1ccccc1` [tamoxifen], the “reduction of the risk of breast cancer” value with breast cancer (women at high risk, long-term study) is 29%. In the series on breast cancer (women at high risk), the “effect on the risk of estrogen-receptor-negative breast cancer” value is recorded as “didn't reduce the risk” and the “reduction of the risk of estrogen-receptor-positive breast cancer” value is listed as 35%. In addition, in the series with breast cancer (setting [9]), the “reduction of the risk of breast cancer” value is reported as 38% and the “reduction of the risk of estrogen-receptor-positive disease” value is given as 45%.
Turning to `C[C@@H]1COC(Nc2ccc3ncnc(Nc4ccc(OCc5nccs5)c(Cl)c4)c3c2)=N1` [varlitinib, (R)-N4-[3-Chloro-4-(thiazol-2-ylmethoxy)-phenyl]-N6-(4-methyl-4,5,-dihydro-oxazol-2-yl)-quinazoline-4,6-diamine], the best tumor response entry in the series on stage IV gastric cancer [1] (human, in vivo) is “stable disease”; in series [3] (non-target disease) it was “non-complete response/non-progressive disease”; in the series on stage IV gastric cancer [5] (human, in vivo), “partial response”; with stage IV bladder cancer (human, in vivo) it was “stable disease”. Further, the “total treatment duration of maintenance therapy” value with stage IV gastric cancer [1] (person, monotherapy after 6 cycles of cisplatin/capecitabine plus 300 mg twice a day, discontinued due to disease progression) is reported as 134 days; in series [3] (person, 400 mg monotherapy, then 300 mg twice a day 1 week on and 1 week off, discontinued due to disease progression), 287 days; in the series with stage IV gastric cancer [5] (person, 400 mg monotherapy, then 300 mg twice a day, discontinued due to disease progression), 243 days; in the series on stage IV bladder cancer (person, monotherapy after 9 cycles of FOLFOX plus 300 mg twice a day, discontinued due to disease progression), 140 days. Besides, in series [2], the tolerability result was “very well tolerated”. In addition, the “adverse event leading to dose tapering” value (in series [3] (after 99 days of 400 mg monotherapy); in the series with stage IV gastric cancer [5] (after 112 days of 400 mg monotherapy)) was “creatinine increase” in each case. Further, the “adverse event leading to dose reduction” value in series [4] (monotherapy 400 mg bi-daily, at cycle 10 day 15) is “increase in G3 creatinine levels”. The “target lesion during maintenance therapy” value in series [4] (period of 10 cycles of maintenance therapy) was “no target lesion was observed”. Further, the “disease status during maintenance therapy” value in series [4] (person, stage VI adenocarcinoma, monotherapy 400 then 300 mg bi-daily, 10 cycles of 28 days, after six cycles with doublet chemotherapy) is recorded as “stable disease”. In addition, the “adverse event leading to interruption and dose reduction” value in series [6] (400 mg per oral twice a day in combination with bi-weekly FOLFOX) is listed as “grade 3 hyperbilirubinemia”. Moreover, in [6] (after 504 days of maintenance treatment), the tumor status result is given as “partial response”. In series [6] (person, monotherapy after 9 cycles with FOLFOX, 300 mg twice a day, ongoing), the “duration of maintenance treatment to date” value came out at 504 days. The “duration of maintenance therapy before developing transitional cell carcinoma of the bladder” value in [7] is “about 6.5 years”. Also, in series [8], the “signs of clinical activity in tumor biopsies” value is “downregulation of signalling pathways responsible for cell proliferation, and a reduction in cell survival and cell proliferation”.
